From US20120252792A1, “METHODS AND COMPOSITIONS FOR MODULATING RHO-MEDIATED GENE TRANSCRIPTION” (THE REGENTS OF THE UNIVERSITY OF MICHIGAN, priority 2009, published 2012) come the findings set out here.

In one assay the test system is Rho/MKL1 pathway. Kind of assay: SRE.L-firefly luciferase reporter (dual luciferase assay), Gα12QL-transfected PC-3 cells. In kind it is cell-based, human. The settings on record: Homo sapiens; for inhibition at 10 µM / inhibition at 100 µM: DMSO alone = 0%; for inhibition at 10 µM: read-out: % inh SRE.L (10 μM); for inhibition at 100 µM: read-out: % inh SRE.L (100 μM). Here is the method: Dual Luciferase Assay: Seed PC-3 prostate cancer cells (40,000 cells/well) were grown in 96-well plates in 10% FBS containing DMEM medium. Cells were transiently transfected with the Gα12QL activator of the Rho/MKL1 pathway, along with the SRE.L-firefly luciferase reporter construct for 6 hours. Additionally, cells were co-transfected with the TK-Renilla luciferase reporter as an indicator of non-specific compound effects. Various concentrations of selected compounds were added to the 96-well plates. Plates were incubated for 19 hours at 37° C. and 5% CO2 in 0.5% FBS containing DMEM medium. Cells were lysed with 1X Passive Lysis Buffer (Promega). Plates were incubated for 30 minutes at room temperature. Luminescence counts were read with a Victor2 (Perkin-Elmer) plate reader.
Background: A reporter such as luciferase makes a cellular process visible.

Assay [1] relates to PC-3 prostate cancer cells. Put plainly: WST1 cell viability assay. In kind it is cell-based, human. The settings on record: Homo sapiens, PC-3 cells, just before lysis; for inhibition at 10 µM: PC-3, 10 μM, read-out: % inh WST-1 (10 μM); for inhibition at 100 µM: PC-3, 100 μM, read-out: % inh WST-1 (100 μM). Here is the method: WST1 Cell Viability Assay: One hour prior to cell lysis for the dual luciferase assay, 10 μl per well of WST1 reagent (Roche) was added to the 96-well plates. Plates were incubated for 1 hour at 37° C. and 5% CO2. Cell viability was measured by WST1 absorbance at 450 nm with a Victor2 (Perkin-Elmer) plate reader.
(Tetrazolium dyes change colour on reduction, which living cells bring about.)

On to `COc1ccc(NC(=O)CONC(=O)c2cc(C(F)(F)F)cc(C(F)(F)F)c2)cc1Cl` [Compound 9, N-(2-(3-chloro-4-methoxyphenylamino)-2-oxoethoxy)-3,5-bis(trifluoromethyl)benzamide], for which the half-maximal inhibitory concentration (IC50) (as a rule, the concentration needed to halve the response being measured) in the assay on Rho/MKL1 pathway (19 h) was determined as 11.4 µM.
On to `O=C(Nc1ccc(Cl)cc1)C1CCCN(C(=O)c2cc(C(F)(F)F)cc(C(F)(F)F)c2)C1` (stereo not drawn) [Compound 4, 1-(3,5-bis(trifluoromethyl)benzoyl)-N-(4-chlorophenyl)piperidine-3-carboxamide], for which, in assay [1], the inhibition at 10 µM came to 0% and the inhibition at 100 µM stood at 14%.
Turning to `O=C(NC1CCN(c2ccc(Cl)cc2)C1)c1cc(C(F)(F)F)cc(C(F)(F)F)c1` (stereo not drawn) [Compound 58, N-(1-(4-chlorophenyl)pyrrolidin-3-yl)-3,5-bis(trifluoromethyl)benzamide], the inhibition at 10 µM in assay [1] was -10.5%; in the assay on Rho/MKL1 pathway (19 h) it was -4.6%. Further, the inhibition at 100 µM is -1.7% in assay [1] and 10.5% in the assay with Rho/MKL1 pathway (19 h).
Take `O=C(CCNC(=O)c1cc(C(F)(F)F)cc(C(F)(F)F)c1)NCc1ccc(Cl)cc1` [Compound 25, N-(3-(4-chlorobenzylamino)-3-oxopropyl)-3,5-bis(trifluoromethyl)benzamide]: the midpoint of inhibition with Rho/MKL1 pathway (19 h), the IC50, lay at 5 µM.
As to `O=C(c1cc(C(F)(F)F)cc(C(F)(F)F)c1)N1CCC(=O)N(c2ccc(Cl)cc2)CC1` [Compound 24, 1-(3,5-bis(trifluoromethyl)benzoyl)-4-(4-chlorophenyl)-1,4-diazepan-5-one], in the assay with Rho/MKL1 pathway (19 h), the IC50 is > 100 µM and the inhibition at 100 µM is 30%.
`O=C(Nc1cc(C(F)(F)F)cc(C(F)(F)F)c1)C1CC(=O)N(c2ccc(Cl)cc2)C1` (stereo not drawn) [Compound 51, N-(3,5-bis(trifluoromethyl)phenyl)-1-(4-chlorophenyl)-5-oxopyrrolidine-3-carboxamide]: in assay [1], the inhibition at 10 µM came out at 55.9% and the inhibition at 100 µM is 74.6%. In addition, in the assay on Rho/MKL1 pathway (19 h), the inhibition at 10 µM worked out at 74.3% and the inhibition at 100 µM came to 99.2%.
Take `O=C(NC1CC(=O)N(c2ccc(Cl)cc2)C1)OCc1cc(F)cc(F)c1` (stereo not drawn) [Compound 46, 3,5-difluorobenzyl (1-(4-chlorophenyl)-5-oxopyrrolidin-3-yl)carbamate]: in assay [1], the inhibition at 10 µM was 0.1% and the inhibition at 100 µM was determined as 67.5%. Besides, in the assay with Rho/MKL1 pathway (19 h), the inhibition at 10 µM amounted to 13.7% and the inhibition at 100 µM is 76.1%.
In the case of `O=C(NCCc1cn(-c2ccc(Cl)cc2)nn1)c1cc(C(F)(F)F)cc(C(F)(F)F)c1` [Compound 41], the IC50 in the assay on Rho/MKL1 pathway (19 h) was > 100 µM.
Take `O=C(CCc1cn(-c2cc(C(F)(F)F)cc(C(F)(F)F)c2)nn1)Nc1ccc(Cl)cc1` [Compound 40]: in the assay with Rho/MKL1 pathway (19 h), the IC50 was > 100 µM.
In the assay on Rho/MKL1 pathway (19 h), `CN(C(=O)CONC(=O)c1cc(C(F)(F)F)cc(C(F)(F)F)c1)c1ccc(Cl)cc1` [Compound 11, N-(2-((4-chlorophenyl)(methyl)amino)-2-oxoethoxy)-3,5-bis(trifluoromethyl)benzamide] returned an IC50 of 111 µM.
As for `O=C(c1cc(C(F)(F)F)cc(C(F)(F)F)c1)N1CCC(Nc2ccc(Cl)cc2)CC1` [Compound 17, (3,5-bis(trifluoromethyl)phenyl)(4-(4-chlorophenylamino)piperidin-1-yl)methanone], the IC50 in the assay with Rho/MKL1 pathway (19 hrs) was 10.8 µM.
In the case of `O=C(c1cc(C(F)(F)F)cc(C(F)(F)F)c1)N1CCCC(CNc2ccc(Cl)cc2)C1` (stereo not drawn) [Compound 56], in assay [1], the inhibition at 10 µM worked out at 24.8% and the inhibition at 100 µM amounted to 22.4%. Further, in the assay with Rho/MKL1 pathway (19 h), the inhibition at 10 µM was 11.5% and the inhibition at 100 µM came to 8.3%.
As to `O=C(NCCCNc1ccc(Cl)cn1)c1cc(C(F)(F)F)cc(C(F)(F)F)c1` [Compound 44, N-(3-((5-chloropyridin-2-yl)amino)propyl)-3,5-bis(trifluoromethyl)benzamide], in assay [1], the inhibition at 10 µM came out at 17.6% and the inhibition at 100 µM turned out to be 39.4%. Further, in the assay on Rho/MKL1 pathway (19 h), the IC50 was found to be 654 µM, the inhibition at 10 µM was 20.5% and the inhibition at 100 µM stood at 82.9%.
For the compound `FC(F)(F)c1cc(CN2CCCC(CNc3ccc(Cl)cc3)C2)cc(C(F)(F)F)c1` (stereo not drawn) [Compound 50, N-((1-(3,5-bis(trifluoromethyl)benzyl)piperidin-3-yl)methyl)-4-chloroaniline], in assay [1], the inhibition at 10 µM amounted to 20.9% and the inhibition at 100 µM came to 32.2%. In the assay on Rho/MKL1 pathway (19 h), the inhibition at 10 µM was found to be 0.9% and the inhibition at 100 µM amounted to 70.2%.
In the case of `COc1cc(N2CC(NC(=O)c3cc(C(F)(F)F)cc(C(F)(F)F)c3)CC2=O)ccc1Cl` (stereo not drawn) [Compound 52, N-(1-(4-chloro-3-methoxyphenyl)-5-oxopyrrolidin-3-yl)-3,5-bis(trifluoromethyl)benzamide], in assay [1], the inhibition at 10 µM is -0.3% and the inhibition at 100 µM turned out to be 42.2%. For the same compound, in the assay with Rho/MKL1 pathway (19 h), the inhibition at 10 µM was -18.4% and the inhibition at 100 µM was determined as 16.9%.
For `O=C(NCCCNc1ccc(Cl)nc1)c1cc(C(F)(F)F)cc(C(F)(F)F)c1` [Compound 42, N-(3-((6-chloropyridin-3-yl)amino)propyl)-3,5-bis(trifluoromethyl)benzamide], in assay [1], the inhibition at 10 µM was -7.4% and the inhibition at 100 µM amounted to 64.7%. Further, in the assay with Rho/MKL1 pathway (19 h), 24.4 µM corresponded to half-maximal inhibition (IC50), the inhibition at 10 µM was -1.7% and the inhibition at 100 µM was 95.1%.
As for `COc1cc(NCCCNC(=O)c2cc(C(F)(F)F)cc(C(F)(F)F)c2)ccc1Cl` [Compound 21, N-(3-(4-chloro-3-methoxyphenylamino)propyl)-3,5-bis(trifluoromethyl)benzamide], in the assay with Rho/MKL1 pathway (19 h), 7.3 µM corresponded to half-maximal inhibition (IC50).
For the compound `COc1ccc(NCCCNC(=O)c2cc(C(F)(F)F)cc(C(F)(F)F)c2)cc1Cl` [Compound 20, N-(3-(3-chloro-4-methoxyphenylamino)propyl)-3,5-bis(trifluoromethyl)benzamide], in the assay with Rho/MKL1 pathway (19 h), half-maximal inhibition (IC50) was put at 9.9 µM.
Consider `O=C(NCCCNc1ccc(Cl)cc1)c1cc(F)cc(F)c1` [Compound 43, N-(3-((4-chlorophenyl)amino)propyl)-3,5-difluorobenzamide], for which, in assay [1], the inhibition at 10 µM is -9.9% and the inhibition at 100 µM turned out to be 73%. In the assay on Rho/MKL1 pathway (19 h), the IC50 was determined as 34.7 µM, the inhibition at 10 µM is -6.5% and the inhibition at 100 µM was found to be 95.7%.
In turn, `O=C(NC1CC(=O)N(c2ccc(Cl)cc2)C1)OCc1ccccc1` (stereo not drawn) [Compound 31, Benzyl 1-(4-chlorophenyl)-5-oxopyrrolidin-3-ylcarbamate] registered an IC50 with Rho/MKL1 pathway (19 h) of 54.7 µM. That is a double-digit micromolar value.
Turning to `CC(C)(C)OC(=O)NC1CCN(c2ccc(Cl)cc2)C1` (stereo not drawn) [Compound 57, tert-butyl (1-(4-chlorophenyl)pyrrolidin-3-yl)carbamate], in assay [1], the inhibition at 10 µM was 9.2% and the inhibition at 100 µM was 21.1%. Further, in the assay on Rho/MKL1 pathway (19 h), the inhibition at 10 µM was -44.4% and the inhibition at 100 µM is 18.7%.
Consider `O=C1Nc2ccc(Cl)cc2C1=CNC(=O)c1cc(C(F)(F)F)cc(C(F)(F)F)c1` [Compound 54, N-((5-chloro-2-oxoindolin-3-ylidene)methyl)-3,5-bis(trifluoromethyl)benzamide], for which the inhibition at 10 µM was 10.6% in assay [1] and 6.5% in the assay with Rho/MKL1 pathway (19 h). The inhibition at 100 µM came to 17.7% in assay [1] and 12.2% with Rho/MKL1 pathway (19 h).
For the compound `O=C(NCC1CCN(c2ccc(Cl)cc2)C1=O)c1cc(C(F)(F)F)cc(C(F)(F)F)c1` (stereo not drawn) [Compound 53, N-((1-(4-chlorophenyl)-2-oxopyrrolidin-3-yl)methyl)-3,5-bis(trifluoromethyl)benzamide], in assay [1], the inhibition at 10 µM was 7.9% and the inhibition at 100 µM is 26.9%. Further, in the assay with Rho/MKL1 pathway (19 h), the inhibition at 10 µM is 14.1% and the inhibition at 100 µM came out at 32.3%.
With `COc1ccc(N2CC(NC(=O)c3cc(C(F)(F)F)cc(C(F)(F)F)c3)CC2=O)cc1Cl` (stereo not drawn) [Compound 55, N-(1-(3-chloro-4-methoxyphenyl)-5-oxopyrrolidin-3-yl)-3,5-bis(trifluoromethyl)benzamide], in assay [1], the inhibition at 10 µM amounted to 7.4% and the inhibition at 100 µM was found to be 23.9%. Moreover, in the assay with Rho/MKL1 pathway (19 h), the inhibition at 10 µM was found to be 4.5% and the inhibition at 100 µM was 26%.
In the assay on Rho/MKL1 pathway (19 h), `COc1ccc(NC(=O)CCNC(=O)c2cc(C(F)(F)F)cc(C(F)(F)F)c2)cc1Cl` [Compound 13, N-(3-(3-chloro-4-methoxyphenylamino)-3-oxopropyl)-3,5-bis(trifluoromethyl)benzamide] had an IC50 of 142 µM.
Turning to `O=C(N[C@@H]1CCC[C@@H]1C(=O)Nc1ccc(Cl)cc1)c1cc(C(F)(F)F)cc(C(F)(F)F)c1` [Compound 39], the IC50 with Rho/MKL1 pathway (19 h) was > 100 µM.
Take `O=C1CC(NC(=O)c2cc(C(F)(F)F)cc(C(F)(F)F)c2)c2cc(Cl)ccc2N1` (stereo not drawn) [Compound 48, N-(6-chloro-2-oxo-1,2,3,4-tetrahydroquinolin-4-yl)-3,5-bis(trifluoromethyl)benzamide]: in assay [1], the inhibition at 10 µM was found to be 4.3% and the inhibition at 100 µM is -2.7%. In the assay with Rho/MKL1 pathway (19 h), the inhibition at 10 µM was 4.9% and the inhibition at 100 µM amounted to 2.5%.
For `COc1ccc(NC(=O)C2CCCN(C(=O)c3cc(C(F)(F)F)cc(C(F)(F)F)c3)C2)cc1Cl` (stereo not drawn) [Compound 12, 1-(3,5-bis(trifluoromethyl)benzoyl)-N-(3-chloro-4-methoxyphenyl)piperidine-3-carboxamide], the IC50 in the assay on Rho/MKL1 pathway (19 h) came to 6 µM.
